Reference: patent publication US20240350450A1, “COMPOSITION COMPRISING a-KE[…] (a-KG) AND 5-HYDROXYMETHYL-2-FURFURAL (5-HMF) TO IMPROVE HEMOGLOBIN-MEDIATED OXYGEN SUPPLY” (CYL GmbH, priority 2021, published 2024)
“Also recorded” adds a separate entry of the source.

Columns and labels:
hemoglobin (Hb) = target: T1, hemoglobin (Hb) (Homo sapiens, UniProt P68871+P69905); assay: in vitro high-throughput determination of oxygen dissociation curves (ODC) in whole blood samples; type: biochemical; details: for Hill coefficient (HC) / P50 / Hb oxygen binding affinity (Hb-O2 affinity): human whole blood, low, medium and high dosage, 37° C., 40 mmHg PCO2
T1 construct: Venous blood was collected from 20 healthy subjects (ten women, ten men) aged 18 to 40 years; from tissue; host or cells: human venous whole blood (erythrocytes) of healthy volunteers
T1 sequence (P69905 2-142 limits assumed): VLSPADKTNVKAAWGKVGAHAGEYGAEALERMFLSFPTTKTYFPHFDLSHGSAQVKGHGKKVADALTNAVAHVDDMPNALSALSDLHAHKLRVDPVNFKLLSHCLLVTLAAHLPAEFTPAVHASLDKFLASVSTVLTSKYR
T1 sequence (P68871 2-147 limits assumed): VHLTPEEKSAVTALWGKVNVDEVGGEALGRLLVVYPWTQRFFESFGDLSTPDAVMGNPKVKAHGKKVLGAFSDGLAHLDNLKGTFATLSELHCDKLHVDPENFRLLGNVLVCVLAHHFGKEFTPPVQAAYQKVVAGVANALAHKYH
Experimental: Venous blood was collected from 20 healthy subjects (ten women, ten men) aged 18 to 40 years. […] Immediately after blood collection, blood gas analysis was performed (ABL800 flex, radiometer) and samples were stored on ice and processed within eight hours.
The recommended maximum daily dose of 5-HMF of Sanopal® (Cyl, Austria) is 720 mg. Assuming its total distribution in the blood volume of a 70 kg person to be approximately 5000 ml (16), the low dose of 5-HMF was defined as 0.14 mg/ml ([…]).
To ensure stable conditions during the ODC measurement, the measurement setup was set up in an environmentally controlled, closed device (EC box). This box is temperature-controlled (37° C.) and contains the experimental setup consisting of a humidifier, a cover for the microplate reader, tubes and valves. A modified 96-well plate was used (a special coating process ensures a thin, yet adherent layer of red blood cells for optimal fluorescence measurement), which enabled a constant gas flow across all wells in a meandering gas flow channel. The measuring plate is integrated into a gas system consisting of gas bags, gas hoses, humidifiers, gas mixers and a peristaltic pump.
The blood samples were placed in the individual wells using a special stamping technique so that a film consisting of a few cell layers could form. Oxygen saturation was measured in each well using dual-wavelength spectroscopy and oxygen partial pressure was measured using the fluorescence lifetime of commercial oxygen sensors at the inlet and outlet ports of the measuring plate. An oxygen ramp of around 20% by volume to 0% by volume was formed, so that a dissociation curve can be measured. The measurements were carried out every minute in a conventional fluorescence plate reader, so that up to 92 samples of whole blood could be analyzed within ˜25 min.
For the ODC experiments, gas mixtures containing 40 mmHg PCO2 were used, and the temperature was kept constant at 37° C.
The statistical analysis was performed using IBM SPSS Statistics 25. The unpaired t-test was used to analyze baseline differences between substance compositions. ANOVA with repeated measures design was used to determine P50 and HC differences between the different dosages and substance compositions.
Post-hoc t-test (Bonferroni-corrected) and ANOVA with repeated measures design were used for each individual substance or a combination of two substances to identify the location and magnitude of changes. Linear regression analysis was used to determine the concentration dependence for each substance. P<0.05 was considered significant. Data are presented as mean±SD.

severe hypoxia = details: animal model of severe hypoxia; cited from earlier work
hypoxia = details: pigs exposed to hypoxia; cited from earlier work
HbO2 affinity = details: human subjects exposed to hypoxia, sickle cell anemia patients; cited from earlier work
[1] = 143 mg/kg 5-HMF, animal studies; cited from earlier work

O=Cc1ccc(CO)o1 [5-HMF, 5-hydroxymethyl-2-furfural]
Hill coefficient (HC) (hemoglobin (Hb)): significantly changed
P50 / Hb oxygen binding affinity (Hb-O2 affinity) (hemoglobin (Hb)): strong dose-dependent increase in Hb-O2 affinity; also recorded: significantly changed P50; also recorded: strong dose-dependent increase in HbO2 affinity; also recorded: significant reduction in the P50
hemodynamic stability and microvascular oxygenation (severe hypoxia): protect against hemodynamic instability and maintain microvascular oxygenation
arterial oxygen saturation (SO2) (hypoxia): improved arterial oxygen saturation
hypoxia-associated increase in pulmonary arterial pressure (hypoxia): attenuation
HbO2 affinity (HbO2 affinity): increases in HbO2 affinity were detected
adverse effects [1]: increase in serum gamma globulin levels and the relative spleen weight

O=C(O)CCC(=O)C(=O)O [α-KG, α-ketoglutaric acid]
Hill coefficient (HC) (hemoglobin (Hb)): altered
P50 / Hb oxygen binding affinity (Hb-O2 affinity) (hemoglobin (Hb)): altered P50
dose dependence of P50 (hemoglobin (Hb); linear regression over low, medium, high dose): lowest effect
